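The compound was tested at five concentrations on cells cultured in 96-well plates, with a 48-hour exposure period. Abbreviation: GI50, concentration required for 50% inhibition of growth. TGI denotes the concentration required for complete inhibition of growth.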

In the test the test system is MDA-MB-468 breast. Put plainly: NCI-60 cell line screen, 48 h.
With `CC(=O)O[C@H]1C[C@@H]2OC3C=C(C)CCC3(C)[C@@]1(C)[C@@]21CO1` (stereo partly specified), the GI50 is 284 nM and the TGI turned out to be 1570 nM.
`CC(C)C(=O)Nc1ccc(-c2nc(-c3cccc(O)c3)c(-c3ccnc(Br)c3)[nH]2)cc1`: the GI50 is 795 nM and the TGI is 2740 nM.
The like results for `Cc1nc2sc(C(=O)c3ccc(Cl)cc3)c(N)c2c(-c2ccccc2Cl)c1C(=O)Nc1ccccc1` were, in that order, 17500 nM and 37000 nM.
For `COc1ccc(-c2c3c(nc4n[nH]c(-c5ccc(Cl)cc5)c24)-c2ccccc2C(=O)C3=O)cc1` the same measures were 1650 nM and 3470 nM.
For `CCCCCCNCc1cc(C(C)(C)C)cc(CNCCCCCC)c1O` the same measures were 1590 nM and 3010 nM.
For the molecule `CN1CCN(c2nc(-c3csc(-c4cccs4)n3)cc3ccccc23)CC1`, the GI50 was 1690 nM and the TGI is 3390 nM.
For the molecule `Cc1nc2cc(Nc3nc(Nc4ccc(F)cc4)nc(N4CCOCC4)n3)ccc2n1Cc1ccccc1`, the GI50 was 1520 nM and the TGI stood at 4280 nM.
On to `COc1ccc(C(=O)c2sc3nc(-c4cccs4)ccc3c2N)cc1OC`, for which the GI50 was 1870 nM and the TGI was greater than 100000 nM.
For `O=C1/C(=C/c2ccc(O)cc2)COc2ccc(O)c(O)c21`, the GI50 is 1990 nM and the TGI worked out at 5690 nM.
The like results for `NC(CSSCC(N)C(=O)O)C(=O)O` (stereo unspecified) were, in that order, greater than 100000 nM and greater than 100000 nM.
`Cc1nc2ccccc2nc1N=Nc1ccccc1`: the GI50 is 21000 nM and the TGI was greater than 100000 nM.
The like results for `COc1cc(Cl)cc(-c2nn(-c3cccc(NC(=O)Nc4ccc(Cl)c(Cl)c4)c3)cc2-c2ccncc2)c1` were, in that order, 1740 nM and 7370 nM.
The like results for `CCCCCCCCCCCCCC[n+]1ccc(C)cc1` were, in that order, 207 nM and 808 nM.
The like results for `COc1ccc(CCN2CCC(CN(C)Cc3cnn(-c4ccccc4)c3)CC2)cc1` were, in that order, 4990 nM and 21300 nM.
`COc1cc2c(c(OC)c1OC)-c1ccc(N=NC(N)=S)c(=O)cc1[C@@H](NC(C)=O)CC2`: the GI50 is 301 nM.
Regarding `O=[N+]([O-])c1cc([N+](=O)[O-])c(Cl)cc1Cl`, the GI50 was 1660 nM and the TGI amounted to 3380 nM.
As to `Cc1cc(O)c(C2=NN(c3ccc(S(N)(=O)=O)cc3)C(/C=C/c3ccccc3)C2)cc1Cl` (stereo unspecified), the GI50 is 3940 nM and the TGI stood at 13800 nM.
Consider `CC1=C2C(=C[C@@](C)(COC(=O)c3ccc(S(=O)(=O)F)cc3)[C@@H]2O)C(=O)[C@](C)(O)C12CC2`, for which the GI50 was 530 nM and the TGI is 2170 nM.
For `COc1ccc(NC2=C(Cl)C(=O)C(C)=C(C)C2=O)cc1` the same measures were 1290 nM and 2750 nM.
Take `NC(=O)c1sc(-n2cnc3cc(C(F)(F)F)ccc32)cc1OCc1ccccc1Br`: the GI50 is greater than 11500 nM and the TGI is greater than 23400 nM.
For `COCCOCCOCc1n(Cc2ccc3ccccc3n2)c2ccccc2[n+]1Cc1ccc2ccccc2n1` the same measures were 190 nM and 2250 nM.
The like results for `CC(C)(C)OC(=O)NCc1cccc(N=C=S)c1` were, in that order, 14800 nM and 48100 nM.
The like results for `COC(=O)C(C(=O)OC)C(Br)C(Br)C(Br)c1ccccc1` (stereo unspecified) were, in that order, 2060 nM and 6180 nM.
As to `CN(CCC(=O)/C(=C\c1ccccc1)c1ccc(Cl)cc1)Cc1ccccc1`, the GI50 is 2140 nM and the TGI was found to be 5960 nM.
The like results for `Cn1cc(C2=C(Nc3ccccc3)C(=O)NC2=O)c2ccccc21` were, in that order, greater than 23000 nM and greater than 25000 nM.
For `NC1(Cc2ccc(Cl)cc2)CCN(c2ncnc3[nH]ccc23)CC1` the same measures were 1920 nM and 12800 nM.
For `Cc1ccc(C2NC(=O)c3ccccc3N2)c(C)c1` (stereo unspecified) the same measures were 6400 nM and greater than 100000 nM.
On to `COc1cnc2c(c1)C(=O)c1c-2n(CCCN2CCC(O)CC2)c(=O)c2cc(Cl)ccc12`, for which the GI50 was 521 nM and the TGI came to 10800 nM.
The like results for `Cc1cccc2c3c(sc12)C(c1ccc(F)cc1)C(C#N)=C(N)O3` (stereo unspecified) were, in that order, 31.5 nM and 551 nM.
For `O=C1N(Cc2ccccc2Cl)c2ccccc2C12NN=C(c1cccc(Cl)c1)S2` (stereo unspecified) the same measures were 1910 nM and 3770 nM.
For `O=C1c2cccnc2C(=O)c2c1c(C(=O)OCCCN1CCCCC1)c1ccccn21`, the GI50 was 314 nM and the TGI was found to be 14500 nM.
The like results for `O=C(N/N=C/c1cccs1)c1[nH]c2ccc(Br)cc2c1-c1ccccc1` were, in that order, 88.1 nM and 4260 nM.
For `CCCCNc1ccc(Nc2ccccc2)cc1` the same measures were 1810 nM and 9420 nM.
The like results for `CC(=O)/C=C/c1ccc(OCc2ccc(Cl)cc2)cc1` were, in that order, 161000 nM and 872000 nM.
For `COc1cc(C)c2sc3ccccc3c(=O)c2c1NCCN(C)C`, the GI50 was 2150 nM and the TGI came out at 5060 nM.
The like results for `Cc1[nH]c2cc(F)ccc2c1-c1nc2c3cccnc3c3ncccc3c2[nH]1` were, in that order, 27.3 nM and 82.8 nM.

For the origin of these results see PubChem BioAssay (NCI).
